In patent publication US11725036B2, “Modified lipidated relaxin B chain peptides and their therapeutic use” (Sanofi, priority 2018, dated 2023):
Starred links: 1 amine or outer side, 2 acyl side, 3 side chain; linkers in the order of their positions; H or OH if unused. Non-standard residues stand in square brackets, D forms with d. Residues, ends and D or L forms follow the SMILES beside them. Groups on a side chain read outwards from the residue. *: point of attachment. X1 = CCCCCCCCCCCCCCCC(=O)N[C@@H](CCC(=O)N[C@@H](CCC(=O)N[C@@H](CCC(=O)NCCCOCCOCCOCCCNC(=O)CCC(=O)NCCCOCCOCCOCCCNC(=O)CCC(=O)NCCCOCCOCCOCCCN*)C(=O)O)C(=O)O)C(=O)O; γGlu = O=C(O)[C@H](CCC(=O)[*:2])N[*:1]; Palmitoyl = CCCCCCCCCCCCCCCC(=O)*; Suc = O=C(CCC(=O)[*:2])[*:1]; αMeK = C[C@](N)(CCCCN)C(=O)O; AEEA = NCCOCCOCC(=O)O; Aib = CC(C)(N)C(=O)O

Target: T1, RXFP1 (Homo sapiens, UniProt Q9HBX9)
T1 construct: OVCAR5 cells expressing endogenous RXFP1; endogenous in cells; host or cells: OVCAR5
T1 sequence (Q9HBX9 1-757): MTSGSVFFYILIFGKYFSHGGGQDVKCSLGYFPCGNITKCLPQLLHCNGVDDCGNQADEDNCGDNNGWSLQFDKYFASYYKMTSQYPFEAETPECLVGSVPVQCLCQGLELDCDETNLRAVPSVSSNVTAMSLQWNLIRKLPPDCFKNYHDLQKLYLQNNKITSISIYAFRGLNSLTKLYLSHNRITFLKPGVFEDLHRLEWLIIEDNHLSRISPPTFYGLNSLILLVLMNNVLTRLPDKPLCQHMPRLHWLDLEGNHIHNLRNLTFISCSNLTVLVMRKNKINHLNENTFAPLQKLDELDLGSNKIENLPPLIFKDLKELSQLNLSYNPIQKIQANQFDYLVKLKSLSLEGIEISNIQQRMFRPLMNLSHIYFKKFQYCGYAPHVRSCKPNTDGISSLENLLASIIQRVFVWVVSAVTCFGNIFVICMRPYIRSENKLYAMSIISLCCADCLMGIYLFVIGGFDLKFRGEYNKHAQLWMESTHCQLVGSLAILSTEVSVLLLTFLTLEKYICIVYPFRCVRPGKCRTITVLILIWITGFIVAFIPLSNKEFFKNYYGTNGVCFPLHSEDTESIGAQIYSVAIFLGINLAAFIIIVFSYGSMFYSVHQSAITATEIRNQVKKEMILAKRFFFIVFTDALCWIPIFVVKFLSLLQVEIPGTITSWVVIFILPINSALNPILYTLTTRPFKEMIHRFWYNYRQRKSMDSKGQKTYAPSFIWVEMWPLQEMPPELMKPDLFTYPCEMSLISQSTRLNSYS
Assay: OVCAR5 cAMP assay (HTRF)
Assay type: cell-based
Details: for EC50: OVCAR 5 cells expressing endogenous RXFP1, cAMP readout; for Emax: OVCAR 5 cells, maximal cAMP relative to H2-relaxin
Summary of the method: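 Endogenous RXFP1 in OVCAR5 cells, pretreated 40 min at 37° C with 1 mM IBMX, then exposed to increasing peptide concentrations in serum-free medium for 30 min at 37° C. cAMP read by HTRF; EC50 by variable-slope sigmoidal fit, Emax as % of H2-relaxin maximal cAMP in same run.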

EC50	Emax	Structure (SMILES)
5.6 nM	98%	CCCCCCCCCCCCCCCC(=O)N[C@@H](CCC(=O)N[C@@H](CCC(=O)N[C@@H](CCC(=O)NCCCOCCOCCOCCCNC(=O)CCC(=O)NCCCOCCOCCOCCCNC(=O)CCC(=O)NCCCOCCOCCOCCCNC(=O)CCC(=O)NCCCC[C@H](NC(=O)CNC(=O)[C@H](CCC(=O)O)NC(=O)C(C)(C)NC(=O)C(C)(C)NC(=O)[C@@H](NC(=O)[C@H](CCCCNC(C)=O)NC(=O)[C@H](C)NC(=O)[C@H](CCCNC(=N)N)NC(=O)[C@@H](NC(=O)[C@H](CC(C)C)NC(=O)[C@H](CCC(=O)O)NC(=O)[C@H](CCCNC(=N)N)NC(=O)CNC(=O)[C@H](CCC(=O)O)NC(=O)[C@H](CC(C)C)NC(C)=O)C(C)C)[C@@H](C)CC)C(=O)N[C@@H](CO)C(=O)N[C@H](C(=O)N[C@@H](Cc1c[nH]c2ccccc12)C(=O)N[C@@H](CO)C(=O)NC(C)(C)C(=O)N[C@@H](CCCNC(=N)N)C(=O)N[C@@H](CCCNC(=N)N)C(=O)N[C@@H](CCCCNC(C)=O)C(N)=O)[C@@H](C)O)C(=O)O)C(=O)O)C(=O)O [compound 37] (Ac-LEGRELVRAK(Ac)I[Aib][Aib]EGK([Suc-X1])STWS[Aib]RRK(Ac)-NH2)
8.7 nM	93%	CCCCCCCCCCCCCCCC(=O)N[C@@H](CCC(=O)N[C@@H](CCC(=O)N[C@@H](CCC(=O)NCCCOCCOCCOCCCNC(=O)CCC(=O)NCCCOCCOCCOCCCNC(=O)CCC(=O)NCCCOCCOCCOCCCNC(=O)CCC(=O)NCCCC[C@H](NC(=O)CNC(=O)[C@H](CCC(=O)O)NC(=O)C(C)(C)NC(=O)C(C)(C)NC(=O)[C@@H](NC(=O)[C@H](CCCCNC(C)=O)NC(=O)[C@H](C)NC(=O)[C@H](CCCNC(=N)N)NC(=O)[C@@H](NC(=O)[C@H](Cc1ccccc1)NC(=O)[C@H](CCC(=O)O)NC(=O)[C@H](CCCNC(=N)N)NC(=O)CNC(=O)[C@H](CCC(=O)O)NC(=O)[C@H](CC(C)C)NC(C)=O)C(C)C)[C@@H](C)CC)C(=O)N[C@@H](CO)C(=O)N[C@H](C(=O)N[C@@H](Cc1c[nH]c2ccccc12)C(=O)N[C@@H](CO)C(=O)NC(C)(C)C(=O)N[C@@H](CCCNC(=N)N)C(=O)N[C@@H](CCCNC(=N)N)C(=O)N[C@@H](CCCCNC(C)=O)C(N)=O)[C@@H](C)O)C(=O)O)C(=O)O)C(=O)O [compound 39] (Ac-LEGREFVRAK(Ac)I[Aib][Aib]EGK([Suc-X1])STWS[Aib]RRK(Ac)-NH2)
1.5 nM	84%	CCCCCCCCCCCCCCCC(=O)N[C@@H](CCC(=O)N[C@@H](CCC(=O)N[C@@H](CCC(=O)NCCOCCOCC(=O)NCCOCCOCC(=O)NCCOCCOCC(=O)NCCOCCOCC(=O)NCCCC[C@H](NC(=O)CNC(=O)[C@H](CCC(=O)O)NC(=O)C(C)(C)NC(=O)C(C)(C)NC(=O)[C@@H](NC(=O)[C@H](CCCCNC(C)=O)NC(=O)[C@H](C)NC(=O)[C@H](CCCNC(=N)N)NC(=O)[C@@H](NC(=O)[C@H](CCCCN)NC(=O)[C@H](CCC(=O)O)NC(=O)[C@H](CCCNC(=N)N)NC(=O)CNC(=O)[C@H](CCC(=O)O)NC(=O)[C@H](CC(C)C)NC(C)=O)C(C)C)[C@@H](C)CC)C(=O)N[C@@H](CO)C(=O)N[C@H](C(=O)N[C@@H](Cc1c[nH]c2ccccc12)C(=O)N[C@@H](CO)C(=O)N[C@@](C)(CCCCN)C(=O)N[C@@H](CCCNC(=N)N)C(=O)N[C@@H](C)C(=O)N[C@@H](CCCCNC(C)=O)C(N)=O)[C@@H](C)O)C(=O)O)C(=O)O)C(=O)O [compound 42] (Ac-LEGREKVRAK(Ac)I[Aib][Aib]EGK([AEEA-AEEA-AEEA-AEEA-γGlu-γGlu-γGlu-Palmitoyl])STWS[αMeK]RAK(Ac)-NH2)
